Measurements as given in patent publication US9446017B2, “Compositions and methods for treating herpes simplex virus” (Augusta University Research Institute, Inc., priority 2005, dated 2016).
Values joined by “and” are separate entries in the source; they are usually repeats but may differ in a detail not shown here. Equal values may be shown once.

Experiments:
[1] = test system: HSV-1; settings: antibodies against gB, gD, and a capsid protein; cited from earlier work
[2] = for a topical application; cited from earlier work
[3] = test system: HSV-2; settings: Vero cells; cited from earlier work
[4] = test system: HSV-1; settings: cited from earlier work
[5] = test system: HSV1-UL46; experiment: GFP expression study using a fluorometer; assay type: cell-based; settings: 75 μM, virions treated 3 hours, cells 12 hrs
Method: GFP expression was studied in Escherichia coli that contained GFP plasmid, and Escherichia coli without GFP plasmid. The fluorometer used was a Tuner Digital Fluorometer-Model 450. Samples were put into 3 mLs of H2O and serial dilutions were performed from the first 3 mLs of each sample. A standard dilution curve was obtained from the serial dilutions. Next, Vero cells were grown on T-75 flasks and allowed to reach confluence. HSV1 virions were treated for 3 hours with 75 μM of polyphenols prior to cell infection. Cells were then infected with treated and non-treated HSV1-UL46 and allowed to adsorb for 1 hour. Viruses that had not been absorbed were then removed by washing the cells twice with PBS. The cells were then incubated at 37° C. for 12 hrs. Cells were then trypsinized and pelleted. Finally, cells were resuspended with 3 mLs of H2O and analyzed for GFP expression using a fluorometer. 3 ml of water was used as the blank sample. The Gain knob was set to 1000 for higher fluorescence sensitivity.
In this experiment, Vero cells only, HSV1/Vero cells, and 75 μM EGCG-ester-HSV1/Vero cells were used to quantitatively measure GFP expression.

Row | SMILES | drop in immunogold labeling, treated compared to untreated virions [1] | stability [2] | inhibition of HSV infection [3] | viral production ([4]; Vero cells treated following adsorption and entry of HSV-1) | inhibition of HSV infection ([4]; Vero cells) | GFP expression (fluorometer) compared to HSV1/Vero cells [5]
1 | O=C(O[C@@H]1Cc2c(O)cc(O)cc2O[C@@H]1c1cc(O)c(O)c(O)c1)c1cc(O)c(O)c(O)c1 [EGCG, (−)-epigallocatechin-3-gallate, reference compound] | 30% and 40% | highly unstable and oxidizes very quickly | successfully inhibited HSV infection in a concentration dependent manner | does not inhibit the viral production | successfully inhibited HSV infection in a concentration dependent manner | –
2 | CCCCCCCCCCCCCCCC(=O)Oc1c(O)cc([C@H]2Oc3cc(O)cc(O)c3C[C@H]2OC(=O)c2cc(O)c(O)c(O)c2)cc1O [EGCG-ester] | – | – | – | – | – | much lower
